Data taken from US20090186000A1, “USE OF THYMOSIN ALPHA 1 FOR PREPARING A MEDICAMENT FOR THE TREATMENT OF STAGE IV MALIGNANT MELANOMA” (SIGMA-TAU INDUSTRIE FARMACEUTICHE RIUNITE S.P.A., priority 2006, published 2009).
Ends that are not written are not given here.

Tests used:
metastatic melanoma = conditions: cited from earlier work
[1] = test system: stage IV melanoma characterized by distant unresectable metastases; experiment: Phase II clinical trial, tumor response by RECIST criteria; assay type: in vivo, human; conditions: preliminary analysis on 142 patients; higher doses of Tα1
Experimental: Trial Design phase II, randomized, stratified, open-study testing different doses of Tα1 in association with DTIC and IFNα, as first line therapy for stage IV melanoma patients characterized by distant unresectable metastases (AJCC; Journal of Clinical Oncology 2001, 19: 3635-3648) without brain metastases. The primary study end-point was tumor response, and the following combination composition were used: • DTIC (800 mg/m^2)+IFNα (3 MIU)+Tα1 (1.6 mg) (97 pts); • DTIC (800 mg/m^2)+IFNα (3 MIU)+Tα1 (3.2 mg) (97 pts); • DTIC (800 mg/m^2)+Tα1 (3.2 mg) (98 pts); • DTIC (800 mg/m^2)+IFNα (3 MIU) (94 pts);
The five groups were analyzed independently one another within the so-called “pick the winner” strategy.
Methods: Recycling every 28 days, patients were administered DTIC (800 mg/m^2) i.v. at day 1, Tα1 (1.6, 3.2 or 6.4 mg) s.c. at days 8-11 and 15-18, and IFNα (3 MIU) s.c. at day 11 and 18. Clinical response was evaluated every two cycles according to RECIST criteria (New Guidelines to Evaluate the Response to Treatment in Solid Tumors; Journal of the National Cancer Institute, 2000. 92: 205-216) utilizing a central reader.
The randomized patients were stratified according to the disease site: M1a, M1b or M1c level.
1) Patients with cutaneous, subcutaneous and/or limphnodal metastases with normal serum LDH value (from 96 to 460 U/L) were classified as M1a. […]

[2] = test system: human non-small cell lung cancer (NSCLC) cells; conditions: subcutaneous, 1 or 10 mg per day; nude mice inoculated with human NSCLC cells; cited from earlier work
lymphosarcoma cells = conditions: BALB/c mice; cited from earlier work
[3] = DTIC alone, metastatic melanoma

CN(C)/N=N/c1[nH]cnc1C(N)=O [DTIC, Dacarbazine]
actual overall responses (metastatic melanoma; DTIC alone, metastatic melanoma, J Clin Oncol and ASCO proceedings 2004): 5.5-6.8%
duration of responses (short-lived) (metastatic melanoma; [3]): three to six
effect of responses on patients' overall survival (metastatic melanoma; [3]): no evidence that these responses have any effect on the patients' overall survival
DTIC efficacy (metastatic melanoma; literature population similar to 16% M1a, 25% M1b, 59% M1c): 5%

thymosin alpha 1 (SDAAVDTSSEITTKDLKEKKEVVEEAEN; ends and bridges not checked; UniProt P06454 2-29, looked up) [a compound well known in the medical field]
dose-response effect on tumor response [1]: clear dose-response effect
tumor volume [2]: significantly decreased
liver and lung metastases (lymphosarcoma cells): significantly reduced
local sarcoma growth (lymphosarcoma cells): significantly reduced
